biological target: T1, Genome polyprotein (Human rhinovirus sp., UniProt Q04107); experiment: ChEBML_160894
T1 sequence (Q04107 whole entry): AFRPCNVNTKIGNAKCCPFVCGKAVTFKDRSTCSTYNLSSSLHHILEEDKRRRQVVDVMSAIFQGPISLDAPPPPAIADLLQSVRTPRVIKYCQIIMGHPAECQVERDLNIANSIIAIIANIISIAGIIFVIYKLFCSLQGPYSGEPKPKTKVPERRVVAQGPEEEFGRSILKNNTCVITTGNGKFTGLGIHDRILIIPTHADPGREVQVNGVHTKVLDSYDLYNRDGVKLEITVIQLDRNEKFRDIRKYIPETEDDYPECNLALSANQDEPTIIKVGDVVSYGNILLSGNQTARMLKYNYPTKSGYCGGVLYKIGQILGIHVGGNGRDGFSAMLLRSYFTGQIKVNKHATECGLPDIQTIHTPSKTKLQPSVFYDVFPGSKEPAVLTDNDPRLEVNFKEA
Description: (§1) Inhibitory activity against HRV 3Cpro using HPLC assay

Compared with `Cc1cc(O)c2c(c1)C(=O)c1cc(O)cc(O)c1C2=O` [1,3,8-trihydroxy-6-methylanthra-9,10-quinone], `CC1Cc2cc(O)c3c(c2C(=O)O1)C(=O)C=C(C1=CC(=O)c2c(c(O)cc4c2C(=O)OC(C)C4)C1=O)C3=O` (stereo not drawn) [9,9'-Dihydroxy-2,2'-dimethyl-1,2,1',2'-tetrahydro-[7,7']bi[3-oxa-phenanthrenyl]-4,5,8,4',5',8'-hexaone] is lower in IC50: greater than 150 µM for the first, 6 µM for the second.

For `O=C1C=Cc2ccccc2C1=O` [1,2-dihydronaphthalene-1,2-dione], the IC50 was 8.2 µM.

biological target: T2, Genome polyprotein (Human rhinovirus sp., UniProt Q4U254); experiment: ChEBML_160894
T2 sequence (Q4U254 whole entry): T1 sequence (Q04107 whole entry)
Description: as §1

First: COC1=CC(=O)c2c(O)cc(C)cc2C1=O [2-methoxy-7-methyljuglone]
Second: COC1=CC(=O)c2c(OC(C)=O)cc(C)cc2C1=O [Acetic acid 6-methoxy-3-methyl-5,8-dioxo-5,8-dihydro-naphthalen-1-yl ester]
The IC50 of the first is 17-fold lower: 2.4 µM for the first, 40 µM for the second.

First: COc1cc(O)c2c(c1)C(=O)c1cc(C)cc(O)c1C2=O [physcion]
Second: Cc1cc(O)c2c(c1)C(=O)C=CC2=O [5-Hydroxy-7-methyl-[1,4]naphthoquinone]
The IC50 of the first is higher: greater than 150 µM for the first, 6.4 µM for the second. The second is the more potent here.

Compared with `COC1=CC(=O)c2ccccc2C1=O`, `COC1=CC(=O)c2ccc(C)cc2C1=O` [2-Methoxy-7-methyl-[1,4]naphthoquinone] is 2.5-fold lower in IC50: 26 µM for the first, 10.5 µM for the second. The second is the more potent here.

Compared with `O=C1C(=O)c2ccccc2-c2ccccc21`, `O=C1CC(=O)c2ccccc2C1=O` is higher in IC50: 1.4 µM for the first, greater than 150 µM for the second. The first is the more potent here.

First: COC1=CC(=O)c2cc(C)c(C(C)=O)c(OC)c2C1=O [7-Acetyl-2,8-dimethoxy-6-methyl-[1,4]naphthoquinone]
Second: COC1=CC(=O)c2c(cc(C)c(C(C)=O)c2OC(C)=O)C1=O [Acetic acid 2-acetyl-6-methoxy-3-methyl-5,8-dioxo-5,8-dihydro-naphthalen-1-yl ester]
The IC50 of the first is 15-fold higher: 124 µM for the first, 8.1 µM for the second. The second is the more potent here.

First: CC(=O)c1c(C)cc2c(c1O)C(=O)C(=O)CC2=O [7-Acetyl-2,8-dihydroxy-6-methyl-[1,4]naphthoquinone]
Second: COC1=CC(=O)c2c(cc(C)c(C(C)=O)c2O)C1=O [6-Acetyl-5-hydroxy-2-methoxy-7-methyl-[1,4]naphthoquinone]
The IC50 of the first is higher: greater than 150 µM for the first, 4.6 µM for the second.

`C[C@@H]1CC2=C(C(=O)c3c(O)cc(O)cc3C2=O)[C@@H](O)O1` [(1S,3R)-1,7,9-Trihydroxy-3-methyl-3,4-dihydro-1H-benzo[g]isochromene-5,10-dione] and `O=C1C=CC(=O)c2c1ccc1c2ccc2ccccc21` [Chrysene-1,4-dione] are within 1.5-fold of each other in IC50: 47 µM for the first, 46.5 µM for the second.

Work on `O=C1C=CC(=O)c2ccccc21` [1,4-dihydronaphthalene-1,4-dione] yielded an IC50 of 21 µM.
